In patent publication US20220388962A1 (Biohaven Therapeutics Ltd., priority 2019, published 2022) one finds IC50 data, which are given here for 35 molecules.

Structures can show the parent of a compound that is named as a salt.

What is called IC50 is the concentration that inhibits the measured activity by half.

TDP-43, sequence (Q13148 whole entry): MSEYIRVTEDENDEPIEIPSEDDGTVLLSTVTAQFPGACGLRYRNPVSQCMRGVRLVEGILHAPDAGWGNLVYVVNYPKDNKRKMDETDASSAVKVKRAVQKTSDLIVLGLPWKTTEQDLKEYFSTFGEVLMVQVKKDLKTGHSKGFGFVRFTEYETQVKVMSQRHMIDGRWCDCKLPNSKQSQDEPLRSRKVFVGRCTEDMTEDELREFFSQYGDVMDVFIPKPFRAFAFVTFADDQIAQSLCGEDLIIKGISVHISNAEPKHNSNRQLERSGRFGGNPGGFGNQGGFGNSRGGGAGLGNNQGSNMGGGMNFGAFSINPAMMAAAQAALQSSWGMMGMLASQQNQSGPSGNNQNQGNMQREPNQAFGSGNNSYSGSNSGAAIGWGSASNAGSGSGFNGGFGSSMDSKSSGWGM

The target in this assay is TDP-43 (Homo sapiens, UniProt Q13148). Kind of assay: TDP-43-DNA alpha-screen assay (bt-TAR-32 displacement). Particulars: bt-TAR-32 0.125 nM, 15 ng/ml TDP-43. Format: binding. On the procedure:
Alpha-screen assay: Displacement of bt-TG6 binding was measured using AlphaScreen technology as previously described (Cassel, J. A. et al., Journal of Biomolecular Screening, 2010, 15, 1099-1106; Cassel, J. A.; Reitz, A. B. et al. The effects of small molecule inhibitors of nucleic acid binding to TDP-43 on TDP-43 metabolism and function. Biochimie, 2012, 94, 1974-1981).
Test compounds were diluted in assay buffer (25 mM Tris [pH 7.4], 0.1% bovine serum albumin [BSA], 0.1% Triton X-100) at 4× the desired final concentration. Dilutions of test compound (50 to 0.02 μM in half-log dilutions with a no compound control well) were pre-incubated with TDP-43 (5 μl of 60 ng/mL) pre-bound to AlphaScreen® anti-GST acceptor beads (5 μl of 40 μg/mL) in 15 μl volume for 30 minutes at 23° C. with shaking. Assays were initiated by the addition of 5 μl bt-TAR-32 (5′-CTGCTTTTTGCCTGTACTGGGTCTCTGTGGTT-3′) 0.5 nM pre-bound to AlphaScreen® strepavidin donor beads (40 μg/mL). After incubation in the dark at 23° C. for 90 minutes with shaking, the AlphaScreen® signal was measured on a Synergy 2 plate reader (BioTek, Winooski, Vt.). IC50 values were determined from nonlinear regression fits of the data to a Sigmoidal dose response variable slope model in GraphPad Prism. Final assay conditions are 25 mM Tris [pH 7.4], 0.1% bovine serum albumin [BSA], 0.100 Triton X-100, 15 ng/ml TDP-43, 0.125 nM bTAR32, 10 ug/ml […].
With `COc1ccc(-c2cc(NCCCNCCCNS(C)(=O)=O)c3ccccc3n2)cc1` [Example 66, N-(3-((3-((2-(4-Methoxyphenyl)quinolin-4-yl)amino)propyl)amino)propyl) methanesulfonamide hydrochloride], the IC50 came to 1410 nM.

Turning to `COc1ccc(-c2cc(NCCC3CCCCN3CCCN3C(=O)c4ccccc4C3=O)c3ccccc3n2)cc1` (centres unmarked) [Example 67, 2-(3-(2-(2-((2-(4-Methoxyphenyl)quinolin-4-yl)amino)ethyl)piperidin-1-yl)propyl) isoindoline-1,3-dione], the IC50 was found to be 290 nM. As to `COc1ccc(-c2cc(NCCCN3CCN4CCCC4C3)c3ccccc3n2)cc1` (centres unmarked) [Example 68, N-(3-(Hexahydropyrrolo[1,2-a]pyrazin-2(1H)-yl)propyl)-2-(4-methoxyphenyl)quinolin-4-amine dihydrochloride], the half-maximal inhibitory concentration (IC50) amounted to 2160 nM. As for `COc1ccc(-c2cc(NC3CCN(C4CCN(C)CC4)CC3)c3ccccc3n2)cc1` [Example 69, 2-(4-Methoxyphenyl)-N-(1′-methyl-[1,4′-bipiperidine]-4-yl)quinolin-4-amine], the figure is 470 nM.

With `COc1ccc(-c2cc(NCCCNC3CCC4CN(Cc5ccccc5)CC43)c3ccccc3n2)cc1` (centres unmarked) [Example 70, N^1-(2-Benzyloctahydrocyclopenta[c]pyrrol-4-yl)-N^3-(2-(4-methoxyphenyl)quinolin-4-yl)propane-1,3-diamine trihydrochloride], the half-inhibitory concentration (IC50) is 170 nM. `COc1ccc(-c2cc(NCCCNCC3CCN(CC4CC4)CC3)c3ccccc3n2)cc1` [Example 71, N^1-((1-(Cyclopropylmethyl)piperidin-4-yl)methyl)-N^3-(2-(4-methoxyphenyl)quinolin-4-yl)propane-1,3-diamine trihydrochloride]: the IC50 came to 100 nM.

In the case of `COc1ccc(-c2cc(NCCCN3CCC(C(N)=O)CC3)c3ccccc3n2)cc1` [Example 72, 1-(3-((2-(4-Methoxyphenyl)quinolin-4-yl)amino)propyl)piperidine-4-carboxamide dihydrochloride], the IC50 was found to be 930 nM. Under `COc1ccc(-c2cc(NCCCN3CCN(C)CC3)c3ccccc3n2)cc1` [Example 73, 2-(4-Methoxyphenyl)-N-(3-(4-methylpiperazin-1-yl)propyl)quinolin-4-amine] stands 1710 nM. For `COc1ccc(-c2cc(NCCN3CCN(C)CC3)c3ccccc3n2)cc1` [Example 74, 2-(4-Methoxyphenyl)-N-(2-(4-methylpiperazin-1-yl)ethyl)quinolin-4-amine], the IC50 worked out at 1850 nM.

For `COc1ccc(-c2cc(NCCCN3CCC(O)CC3)c3ccccc3n2)cc1` [Example 75, 1-(3-((2-(4-Methoxyphenyl)quinolin-4-yl)amino)propyl)piperidin-4-ol], the IC50 is 590 nM. As for `COc1ccc(-c2cc(NCCCN3CCOCC3)c3ccccc3n2)cc1` [Example 76, 2-(4-Methoxyphenyl)-N-(3-morpholinopropyl)quinolin-4-amine], the figure is 6280 nM; as for `COc1ccc(-c2cc(NCCCN(C)CCCNC(=O)Cc3c(C)c4ccc(N)cc4oc3=O)c3ccccc3n2)cc1` [Example 77, 2-(7-Amino-4-methyl-2-oxo-2H-chromen-3-yl)-N-(3-((3-((2-(4-methoxyphenyl)quinolin-4-yl)amino)propyl)(methyl)amino)propyl)acetamide trihydrochloride], 250 nM. In the case of `COc1ccc(-c2cc(NCCCN(C)CCCNS(=O)(=O)c3cccc4c(N(C)C)cccc34)c3ccccc3n2)cc1` [Example 78, 5-(dimethylamino)-N-{3-[(3-{[2-(4-methoxyphenyl)quinolin-4 yl]amino}propyl)(methyl)amino]propyl}naphthalene-1-sulfonamide], the half-inhibitory concentration (IC50) came out at 1260 nM. Turning to `COc1cc2nc(-c3ccc(N4CCNCC4)cc3)cc(N[C@H]3C[C@@H](N)C3)c2cc1OC` [Example 79], the IC50 was 20 nM.

Consider `COc1cc2nc(-c3ccc(N4CCNCC4)cc3)cc(N[C@H]3C[C@H](N)C3)c2cc1OC` [Example 80], for which the IC50 turned out to be 20 nM.

For the molecule `COc1cc2nc(-c3ccc(N4CCNCC4)cc3)cc(N[C@H]3CC[C@H](N)CC3)c2cc1OC` [Example 81, (1R,4R)—N^1-(6,7-dimethoxy-2-(4-(piperazin-1-yl)phenyl)quinolin-4-yl)cyclohexane-1,4-diamine], the IC50 is 30 nM. Consider `COc1cc2nc(-c3ccc(N4CCNCC4)cc3)cc(NCCCN)c2cc1OC` [Example 82], for which the IC50 stood at 30 nM.

As to `N[C@H]1C[C@@H](Nc2cc(-c3ccc(N4CCNCC4)cc3)nc3ccccc23)C1` [Example 83], the IC50 came to 30 nM. Under `NCCCNc1cc(-c2ccc(-n3cc4c(n3)CNC4)cc2)nc2ccccc12` [Example 84, N^1-(2-(4-(5,6-dihydropyrrolo[3,4-c]pyrazol-2(4H)-yl)phenyl)quinolin-4-yl)propane-1,3-diamine] stands 40 nM; under `COc1cc2nc(-c3ccc(N4CCNCC4)cc3)cc(N[C@H]3CC[C@@H](N)CC3)c2cc1OC` [Example 85], 40 nM. As for `NCCCNc1cc(-c2ccc(N3CCNCC3)cc2)nc2ccccc12` [Example 86], the IC50 is 50 nM. As to `COc1cc2nc(-c3ccc(N4CCNCC4)cc3)cc(NCCCN(C)C)c2cc1OC` [Example 87, N-(3-(dimethylamino)propyl)-6,7-dimethoxy-2-(4-(piperazin-1-yl)phenyl)quinolin-4-amine], the IC50 was 50 nM. On to `CN(CCCN)CCCNc1cc(-c2cccc(N3CCNCC3)c2)nc2ccccc12` [Example 88], for which the IC50 was found to be 60 nM.

Consider `COc1ccc(-c2cc(NC3CCC(N)CC3)c3cc(OC)c(OC)cc3n2)cc1` (centres unmarked) [Example 89], for which the IC50 amounted to 80 nM.

As for `NC1CCC(Nc2cc(-c3ccc(N4CCNCC4)cc3)nc3ccccc23)CC1` (centres unmarked) [Example 90], the half-maximal inhibitory concentration (IC50) came out at 80 nM. As for `CC(C)C(N)C(=O)N1CCN(c2ccc(-c3cc(NCCCN(C)C)c4ccccc4n3)cc2)CC1` (centres unmarked) [Example 91, 2-amino-1-(4-(4-(4-((3-(dimethylamino)propyl)amino)quinolin-2-yl)phenyl)piperazin-1-yl)-3-methylbutan-1-one], the figure is 90 nM; as for `CC(N)C(=O)N1CCN(c2ccc(-c3cc(NCCCN(C)C)c4ccccc4n3)cc2)CC1` (centres unmarked) [Example 92], 90 nM.

On to `CN1CCC(n2cc(-c3cc(NCCCN)c4ccccc4n3)cn2)CC1` [Example 93], for which the IC50 turned out to be 90 nM. Under `COc1ccc(-c2cc(NCCCN(C)CCCN)c3cc(OC)c(OC)cc3n2)cc1` [Example 94] stands 100 nM; under `NCCCNc1cc(-c2ccc(C3CCNCC3)cc2)nc2ccccc12` [Example 95], 110 nM; under `NCCCNc1cc(-c2cnn(C3CCNCC3)c2)nc2ccccc12` [Example 96], 120 nM. As for `COc1ccc(-c2cc(N[C@H]3C[C@H](N)C3)c3cc(OC)c(OC)cc3n2)cc1` [Example 97], the IC50 worked out at 130 nM.

For `CN(C)CCCNc1cc(-c2cccc(N3CCNCC3)c2)nc2ccccc12` [Example 98], the IC50 is 140 nM. `CN(C)CCCNc1cc(-c2ccc(N3CCNCC3)cc2)nc2ccccc12` [Example 99, N^1,N^1-dimethyl-N3-(2-(4-(piperazin-1-yl)phenyl)quinolin-4-yl)propane-1,3-diamine]: the 50% inhibitory concentration (IC50) was 150 nM.

On to `NCCCNc1cc(-c2cnn(CCN3CCCC3)c2)nc2ccccc12` [Example 100], for which the IC50 was 160 nM.
